According to patent US20240180878A1, “AMIDE DERIVATIVES OF BUTYRIC ACID FOR USE IN THE TREATMENT OR PREVENTION OF SARS-COV-2 INFECTION” (RHEA INNOVATIONS S.R.L., priority 2021, published 2024):

Columns and labels:
[1] = test system: ACE2; test: SARS-CoV-2 infection model in Caco-2 cells, expression (qRT-PCR, Western blotting); type: cell-based, human; conditions: Caco-2 pretreated with 2 mM FBA for 24 h, then 1 MOI wild-type SARS-CoV-2 for 72 h
Procedure: (§1) The SARS-CoV-2 infection was performed on Caco-2, at 15 days post-confluence, using SARS-CoV-2 wild-type strain. Before the infection, cells were incubated with 2 mM of FBA for 24 h at 37° C. 1 MOI of SARS-CoV-2 was added to the Caco-2 monolayer for 72 h. Then, SARS-CoV-2 inoculum was removed, the cells were washed three times with PBS 1× and were harvested for RNA, proteins extraction and for fluorescence microscopy analysis.
RNA samples were extracted, processed and analyzed as described above. Western blotting was performed on the total protein extracts of infected Caco-2 cells pretreated with FBA. For the total protein fraction, the harvested cells were washed in cold phosphate-buffered saline (PBS) and lysed in protein lysis buffer (RIPA). Protein concentrations in cell extracts were determined using the Bradford assay (BioRad, Milan, Italy). Thirty microgram total lysates were loaded onto 10% SDS-PAGE and then transferred to nitrocellulose membranes (ImmobilonR-Transfer Membrane, Tullagreen, Carrigtwohill, Co). […]
Western blotting was performed on the total protein extracts of infected Caco-2 cells pretreated with FBA. […] Protein concentrations in cell extracts were determined using the Bradford assay (BioRad, Milan, Italy). […]

[2] = test system: interleukin (IL)-15; test: Small intestinal biopsy organ culture, qRT-PCR gene expression; type: cell-based; conditions: human small intestine biopsies, 2 mM FBA vs medium alone
[3] = test system: TMPRSS2; test: as above; type: cell-based; conditions: human small intestine biopsies, 2 mM FBA for 24 h vs medium alone
[4] = test system: IL-15; test: Human respiratory epithelial cell line Calu3, qRT-PCR gene expression; type: cell-based; conditions: Calu3 cells, 2 mM FBA, 24 h of incubation
[5] = test system: MCP-1; test: as above; type: cell-based; conditions: Calu3 cells, 2 mM FBA, 24 h of incubation
[6] = test system: monocyte chemoattractant protein-1 (MCP-1); test: Small intestinal biopsy organ culture, qRT-PCR gene expression; type: cell-based; conditions: human small intestine biopsies, 2 mM FBA vs medium alone
[7] = test system: MCP-1; test: Human enterocytes cell line (Caco-2), qRT-PCR gene expression; type: cell-based; conditions: Caco-2 cells, 2 mM FBA (maximal effective dose), 24 h of incubation
[8] = test system: ACE2; test: Small intestinal biopsy organ culture, qRT-PCR gene expression; type: cell-based; conditions: human small intestine biopsies, 2 mM FBA for 24 h vs medium alone
[9] = test system: ACE2; test: Human respiratory epithelial cell line Calu3, qRT-PCR gene expression; type: cell-based; conditions: Calu3 cells, 2 mM FBA, 24 h of incubation
[10] = test system: tumor necrosis factor-alpha (TNF-α); test: Small intestinal biopsy organ culture, qRT-PCR gene expression; type: cell-based; conditions: human small intestine biopsies, 2 mM FBA vs medium alone
[11] = test system: TNF-α; test: Human enterocytes cell line (Caco-2), qRT-PCR gene expression; type: cell-based; conditions: Caco-2 cells, 2 mM FBA (maximal effective dose), 24 h of incubation
[12] = test system: IL-15; test: as above; type: cell-based; conditions: Caco-2 cells, 2 mM FBA (maximal effective dose), 24 h of incubation
[13] = test system: TNF-α; test: Human respiratory epithelial cell line Calu3, qRT-PCR gene expression; type: cell-based; conditions: Calu3 cells, 2 mM FBA, 24 h of incubation
[14] = test system: TMPRSS2; test: Human enterocytes cell line (Caco-2), qRT-PCR gene expression; type: cell-based; conditions: Caco-2 cells, 2 mM FBA (maximal effective dose), 24 h of incubation
[15] = test system: ACE2; test: as above; type: cell-based; conditions: Caco-2 cells, 2 mM FBA (maximal effective dose), 24 h of incubation
[16] = test system: SARS-CoV-2 wild-type strain; type: cell-based; conditions: Caco-2 pretreated with 2 mM FBA for 24 h, then 1 MOI wild-type SARS-CoV-2 for 72 h
[17] = test system: IL-1β; test: SARS-CoV-2 infection model in Caco-2 cells, gene expression; type: cell-based, human; conditions: Caco-2 pretreated with 2 mM FBA for 24 h, then 1 MOI wild-type SARS-CoV-2 for 72 h
[18] = test system: TMPRSS2; test: Human respiratory epithelial cell line Calu3, qRT-PCR gene expression; type: cell-based; conditions: Calu3 cells, 2 mM FBA, 24 h of incubation
[19] = test system: MCP-1; test: SARS-CoV-2 infection model in Caco-2 cells, gene expression; type: cell-based, human; conditions: Caco-2 pretreated with 2 mM FBA for 24 h, then 1 MOI wild-type SARS-CoV-2 for 72 h
Procedure: as §1
(§2) RNA samples were extracted, processed and analyzed as described above. Western blotting was performed on the total protein extracts of infected Caco-2 cells pretreated with FBA. For the total protein fraction, the harvested cells were washed in cold phosphate-buffered saline (PBS) and lysed in protein lysis buffer (RIPA). Protein concentrations in cell extracts were determined using the Bradford assay (BioRad, Milan, Italy). Thirty microgram total lysates were loaded onto 10% SDS-PAGE and then transferred to nitrocellulose membranes (ImmobilonR-Transfer Membrane, Tullagreen, Carrigtwohill, Co). The membranes were blocked with 5% non-fat milk in PBS, pH 7.6, 0.2% Tween 20 (PanReac AppliChem) and probed overnight at 4° C. with the specific primary antibodies for ACE2 (1:2000; Abcam). After washing in PBS, pH 7.6, 0.2% Tween 20, the membranes were incubated with a horseradish peroxidase-conjugated goat anti-rabbit antibody (1:2000; Abcam). The immunoblots were visualized using ECL detection kits, with enhanced chemiluminescence (Pierce, Rockford, IL, USA). A mouse β-actin antibody (1:5000; Elabscience) was used as the control for equal loading of total lysates.

[20] = test system: CXCL1; test: as above; type: cell-based, human; conditions: Caco-2 pretreated with 2 mM FBA for 24 h, then 1 MOI wild-type SARS-CoV-2 for 72 h
Procedure: as §1, §2

[21] = test system: TNF-α; test: as above; type: cell-based, human; conditions: Caco-2 pretreated with 2 mM FBA for 24 h, then 1 MOI wild-type SARS-CoV-2 for 72 h
Procedure: as §1, §2

[22] = test system: VEGFβ; test: as above; type: cell-based, human; conditions: Caco-2 pretreated with 2 mM FBA for 24 h, then 1 MOI wild-type SARS-CoV-2 for 72 h
Procedure: as §1, §2

[23] = test system: TMPRSS2; test: as above; type: cell-based, human; conditions: Caco-2 pretreated with 2 mM FBA for 24 h, then 1 MOI wild-type SARS-CoV-2 for 72 h
Procedure: as §1, §2

Structure (SMILES): CCCC(=O)NC(Cc1ccccc1)C(N)=O (centres unmarked) [FBA, N-(1-carbamoyl-2-phenyl-ethyl) butyramide]
- ACE2 expression [1]: inhibit
- expression of interleukin (IL)-15 [2]: significant reduction
- expression of TMPRSS2 [3]: significantly decreased
- expression of IL-15 [4]: downregulate
- expression of MCP-1 [5]: downregulate
- expression of MCP-1 [6]: significant reduction
- MCP-1 expression [7]: significantly reduce
- expression of ACE2 [8]: significantly decreased
- expression of ACE2 [9]: downregulate
- expression of TNF-α [10]: significant reduction
- TNF-α expression [11]: significantly reduce
- IL-15 expression [12]: significantly reduce
- expression of TNF-α [13]: downregulate
- TMPRSS2 expression [14]: significantly reduce
- ACE2 expression [15]: significantly reduce
- virus entry [16]: inhibit
- expression of IL-1β [17]: inhibit
- expression of TMPRSS2 [18]: downregulate
- expression of MCP-1 [19]: inhibit
- expression of CXCL1 [20]: inhibit
- expression of TNF-α [21]: inhibit
- expression of VEGFβ [22]: inhibit
- TMPRSS2 expression [23]: inhibit
